Data published in ChEMBL document CHEMBL1122254, “Sulfonyliminoimidazolidines. A new class of oral hypoglycemic agents. 1. 1-[[p-[2-(acylamino)ethyl]phenyl]sulfonyl]-2-iminoimidazolidines” (1983).

What was measured:
Format in all cases: functional
[1] = tested on: Rattus norvegicus; assay: Hypoglycemic activity by lowering blood glucose in normal rats by 20% after oral administration.
[2] = tested on: Rattus norvegicus; assay: Hypoglycemic activity by lowering blood glucose in normal rats by 50% after oral administration.
[3] = tested on: Rattus norvegicus; assay: Hypoglycemic activity by lowering blood glucose in streptozotocin-diabetic rats by 20% after oral administration.
[4] = tested on: Rattus norvegicus; assay: Compound evaluated for hypoglycemic activity by lowering blood glucose in normal rats by 50% after oral administration (highest dose tested)
[5] = tested on: Rattus norvegicus; assay: Compound evaluated for hypoglycemic activity by lowering blood glucose in streptozotocin-diabetic rats by 20% after oral administration (highest dose tested)
[6] = tested on: Rattus norvegicus; assay: Compound evaluated for hypoglycemic activity by lowering blood glucose in streptozotocin-diabetic rats by 20% after oral administration

SMILES	ED20 [1]	ED50 [2]	ED20 [3]	ED50 [4]	ED20 [5]	ED20 [6]
C=C(C)C(=O)NCCc1ccc(S(=O)(=O)N2CCN(C3CCCCC3)C2=N)cc1	0.024 mmol/kg	220 µmol/kg				
CCOCC(=O)NCCc1ccc(S(=O)(=O)N2CCN(C3CCCCC3)C2=N)cc1	0.044 mmol/kg	150 µmol/kg				
C[S+]([O-])CCC(=O)NCCc1ccc(S(=O)(=O)N2CCN(C3CCCCC3)C2=N)cc1 (stereo not given)	0.056 mmol/kg	200 µmol/kg	0.86 mmol/kg			
CSCCC(=O)NCCc1ccc(S(=O)(=O)N2CCN(C3CCCCC3)C2=N)cc1	0.053 mmol/kg	200 µmol/kg				
N=C1N(C2CCCCC2)CCN1S(=O)(=O)c1ccc(CCNC(=S)NC2CCCCC2)cc1	0.16 mmol/kg			> 820 µmol/kg		
COCCC(=O)NCCc1ccc(S(=O)(=O)N2CCN(C3CCCCC3)C2=N)cc1	0.033 mmol/kg	220 µmol/kg				
CN(C)CC(=O)NCCc1ccc(S(=O)(=O)N2CCN(C3CCCCC3)C2=N)cc1	0.057 mmol/kg	180 µmol/kg				
CCCSCC(=O)NCCc1ccc(S(=O)(=O)N2CCN(C3CCCCC3)C2=N)cc1	0.1 mmol/kg	550 µmol/kg				
CSCC(=O)NCCc1ccc(S(=O)(=O)N2CCN(C3CCCCC3)C2=N)cc1	0.081 mmol/kg	190 µmol/kg				
C=CC(=O)NCCc1ccc(S(=O)(=O)N2CCN(C3CCCCC3)C2=N)cc1	0.042 mmol/kg	210 µmol/kg				
CCSCC(=O)NCCc1ccc(S(=O)(=O)N2CCN(C3CCCCC3)C2=N)cc1	0.055 mmol/kg	200 µmol/kg	0.57 mmol/kg			
C/C=C\C(=O)NCCc1ccc(S(=O)(=O)N2CCN(C3CCCCC3)C2=N)cc1	0.0038 mmol/kg	38 µmol/kg				
C=CCCC(=O)NCCc1ccc(S(=O)(=O)N2CCN(C3CCCCC3)C2=N)cc1	0.0069 mmol/kg	15 µmol/kg	0.36 mmol/kg			
CC(=O)NCCc1ccc(S(=O)(=O)N2CCN(C3CCCCC3)C2=N)cc1	0.038 mmol/kg	240 µmol/kg				
CCOC(=O)NCCc1ccc(S(=O)(=O)N2CCN(C3CCCCC3)C2=N)cc1	0.035 mmol/kg	170 µmol/kg				
N=C1N(C2CCCCC2)CCN1S(=O)(=O)c1ccc(CCNC(=O)c2cccnc2)cc1	0.034 mmol/kg	160 µmol/kg			> 0.22 mmol/kg	
CCCCOC(=O)NCCc1ccc(S(=O)(=O)N2CCN(C3CCCCC3)C2=N)cc1	0.079 mmol/kg	890 µmol/kg	0.89 mmol/kg			
N=C1N(C2CCCCC2)CCN1S(=O)(=O)c1ccc(CCNC(=O)CN)cc1	0.39 mmol/kg		0.62 mmol/kg			

SMILES	ED20 [1]	ED50 [2]	ED20 [3]	ED50 [4]	ED20 [5]	ED20 [6]
CC(C(=O)NCCc1ccc(S(=O)(=O)N2CCN(C3CCCCC3)C2=N)cc1)N(C)C (stereo not given)	0.024 mmol/kg	62 µmol/kg				
Cc1cc(C(=O)NCCc2ccc(S(=O)(=O)N3CCN(C4CCCCC4)C3=N)cc2)no1	0.022 mmol/kg	130 µmol/kg	0.14 mmol/kg			
CCCCCC/N=C(\S)NCCc1ccc(S(=O)(=O)N2CCN(C3CCCCC3)C2=N)cc1	0.3 mmol/kg			> 610 µmol/kg		
N=C1N(C2CCCCC2)CCN1S(=O)(=O)c1ccc(CCNC(=O)c2ccc(Cl)c(Cl)c2)cc1	0.37 mmol/kg			> 760 µmol/kg		
Cc1cnc(C(=O)NCCc2ccc(S(=O)(=O)N3CCN(C4CCCCC4)C3=N)cc2)cn1	0.01 mmol/kg	100 µmol/kg			> 0.61 mmol/kg	
CSc1ccccc1C(=O)NCCc1ccc(S(=O)(=O)N2CCN(C3CCCCC3)C2=N)cc1	0.064 mmol/kg	620 µmol/kg				
COc1ccc(C(=O)NCCc2ccc(S(=O)(=O)N3CCN(C4CCCCC4)C3=N)cc2)cc1OC	0.066 mmol/kg	780 µmol/kg				
Cc1ccccc1C(=O)NCCc1ccc(S(=O)(=O)N2CCN(C3CCCCC3)C2=N)cc1	0.022 mmol/kg			> 850 µmol/kg		
COc1ccccc1C(=O)NCCc1ccc(S(=O)(=O)N2CCN(C3CCCCC3)C2=N)cc1	0.093 mmol/kg			> 830 µmol/kg		
CCCOCC(=O)NCCc1ccc(S(=O)(=O)N2CCN(C3CCCCC3)C2=N)cc1	0.1 mmol/kg	350 µmol/kg				
COc1cccc(C(=O)NCCc2ccc(S(=O)(=O)N3CCN(C4CCCCC4)C3=N)cc2)c1	0.062 mmol/kg	380 µmol/kg				0.31 mmol/kg
N=C1N(C2CCCCC2)CCN1S(=O)(=O)c1ccc(CCNC(=S)Nc2ccccc2)cc1	0.063 mmol/kg	630 µmol/kg				
CCCC(=O)NCCc1ccc(S(=O)(=O)N2CCN(C3CCCCC3)C2=N)cc1	0.024 mmol/kg	83 µmol/kg				0.52 mmol/kg
CC(C)CC(=O)NCCc1ccc(S(=O)(=O)N2CCN(C3CCCCC3)C2=N)cc1	0.046 mmol/kg	150 µmol/kg				
COc1ccc(Cl)cc1C(=O)NCCc1ccc(S(=O)(=O)N2CCN(C3CCCCC3)C2=N)cc1	0.12 mmol/kg			> 770 µmol/kg		
N=C1N(C2CCCCC2)CCN1S(=O)(=O)c1ccc(CCNC(=O)Oc2ccccc2)cc1	0.042 mmol/kg	> 850 µmol/kg				
N=C1N(C2CCCCC2)CCN1S(=O)(=O)c1ccc(CCNC(=O)CCN)cc1	0.065 mmol/kg	370 µmol/kg	0.76 mmol/kg			
